Results from patent US20130275051A1, “COMPUTING DEVICE AND METHOD FOR DETECTING CELL DEATH IN A BIOLOGICAL SAMPLE” (priority 2011, published 2013).

Tested on: human bladder carcinoma (HT-1376) tumors
Experiment: OCT decorrelation time in tumors grown in dorsal skin-fold window chamber model
Type: in vivo
Details: mice, single tail vein injection 100 mg/m2, 0, 24 and 48 hours, FIG. 11; cell death confirmed by histological data
Source text: An in-vivo tumor model used in the successful experiment consisted of human bladder carcinoma (HT-1376) tumors grown within a dorsal skin-fold window chamber model in a plurality of mice. […] A custom built 36 kHz swept source OCT system (similar to system 100) was used for in-vivo acquisition of data. For each imaging time point, two-dimensional frames of OCT data were acquired at 200 frames per second over approximately 8 seconds. Each frame contained 180 axial scans and covered a lateral distance of 3 mm. Data sets were acquired from imaging planes within the window chamber of each mouse. Method 200 was applied to each pixel location of an ROI within tumors at 0 hours, 24 hours and 48 hours to obtain an average decorrelation time at each of 0 hours, 24 hours and 48 hours.

## N.N.[Cl][Pt][Cl] [cisplatin]
  average decorrelation time within tumor ROI: increase in average decorrelation time
